According to ChEMBL document CHEMBL4138203, “Recent developments in anti-Trichomonas research: An update review” (Eur J Med Chem, 2018):
Converted amounts (≈) assume the structure as drawn. One block for each molecule: values may come before it.

Experiments:
Homo sapiens [1] = species: Homo sapiens; assay: Spermicidal activity in human semen assessed as induction of sperm immobilization; format: functional
Trichomonas vaginalis [2] = assay: Anti-Trichomonas activity against Trichomonas vaginalis by quantitative fluorescent method; format: functional
Trichomonas vaginalis [3] = assay: Anti-Trichomonas activity against metronidazole-susceptible Trichomonas vaginalis ATCC 30236 after 24 hrs by hemocytometry; format: functional, organism-based; conditions: ATCC 30236, 24 h
Trichomonas vaginalis [4] = assay: Anti-Trichomonas activity against Trichomonas vaginalis after 24 hrs by inverted microscopic analysis; format: functional
Trichomonas vaginalis [5] = assay: Anti-Trichomonas activity against metronidazole-resistant Trichomonas vaginalis after 48 hrs by trypan blue exclusion assay; format: functional
Trichomonas vaginalis [6] = assay: Anti-Trichomonas activity against Trichomonas vaginalis; format: functional, organism-based
Trichomonas vaginalis [7] = assay: Anti-Trichomonas activity against metronidazole-resistant Trichomonas vaginalis ATCC 50138 assessed as inhibition of parasite growth at 5.5 mM measured at 5 to 60 mins in presence of NH4Cl by trypan blue-based assay; format: functional
Trichomonas vaginalis [8] = assay: Anti-Trichomonas activity against metronidazole-susceptible Trichomonas vaginalis ATCC 30001 assessed as inhibition of parasite growth at 5.5 mM measured at 5 to 60 mins in presence of NH4Cl by trypan blue-based assay; format: functional
Trichomonas vaginalis [9] = assay: Anti-Trichomonas activity against Trichomonas vaginalis JT assessed as reduction in parasite growth after 48 hrs by haemocytometry; format: functional, organism-based
Trichomonas vaginalis [10] = assay: Anti-Trichomonas activity against Trichomonas vaginalis JT assessed as reduction in parasite growth after 24 hrs by haemocytometry; format: functional, organism-based
Trichomonas vaginalis [11] = assay: Anti-Trichomonas activity against Metronidazole-resistant Trichomonas vaginalis 085 ATCC 50143 after 48 hrs by inverted microscopic analysis; format: functional; conditions: 085 ATCC 50143, 48 h
Trichomonas vaginalis [12] = assay: Anti-Trichomonas activity against metronidazole-susceptible Trichomonas vaginalis after 48 hrs by trypan blue exclusion assay; format: functional
Homo sapiens [13] = species: Homo sapiens; assay: Spermicidal activity in human semen assessed as induction of sperm immobilization 0.0015% after 30 secs in presence of sapindus saponin
Trichomonas vaginalis [14] = assay: Anti-Trichomonas activity against Trichomonas vaginalis isolate 1 at 250 uM after 48 hrs by microscopic analysis; format: functional; conditions: isolate 1, 48 h
Trichomonas vaginalis [15] = assay: Anti-Trichomonas activity against Trichomonas vaginalis isolate 2 at 250 uM after 48 hrs by microscopic analysis; format: functional; conditions: isolate 2, 48 h
Trichomonas vaginalis [16] = assay: Anti-Trichomonas activity against metronidazole-resistant Trichomonas vaginalis IR78 ATCC 50138 cultured in TYI-S-33 media assessed as reduction in parasite growth after 30 mins by haemocytometry; format: functional, organism-based; conditions: IR78 ATCC 50138, 0.5 h
Trichomonas vaginalis [17] = assay: Anti-Trichomonas activity against metronidazole-resistant Trichomonas vaginalis IR78 ATCC 50138 cultured in PBS/BSA media assessed as reduction in parasite growth after 30 mins by haemocytometry; format: functional, organism-based; conditions: IR78 ATCC 50138, 0.5 h
Trichomonas vaginalis [18] = assay: Anti-Trichomonas activity against metronidazole-resistant Trichomonas vaginalis JT after 48 hrs by hemocytometry; format: functional, organism-based
Trichomonas vaginalis [19] = assay: Potency index, ratio of Metronidazole MIC to compound MIC for anti-trichomonas activity against Metronidazole-resistant Trichomonas vaginalis 085 ATCC 50143; format: functional
Trichomonas vaginalis [20] = assay: Anti-Trichomonas activity against Metronidazole-resistant Trichomonas vaginalis isolate 085 ATCC 50143 infected in Swiss Webster mouse at 25 mg/kg, po dosed for 4 days measured at 24 hrs post last dose by microscopic analysis; format: functional
Trichomonas vaginalis [21] = assay: Anti-Trichomonas activity against Trichomonas vaginalis at 100 uM; format: functional
[22] = Trichomonas vaginalis, read-out: MIC

SMILES: C1CCNC1.S=C(S)N1CCCC1 [listing 1 of 2 here]
- MEC (Homo sapiens [1]): 145 µM

- MIC (Trichomonas vaginalis [2]): 0.05%
SMILES: C[C@H]1[C@H](C)CC[C@]2(C(=O)O[C@@H]3O[C@H](CO)[C@@H](O)[C@H](O)[C@H]3O)CC[C@]3(C)C(=CC[C@@H]4[C@@]5(C)CC[C@H](O[C@@H]6O[C@H](CO[C@@H]7O[C@@H](C)[C@H](O)[C@@H](O)[C@H]7O[C@@H]7O[C@H](CO)[C@@H](O)[C@H](O)[C@H]7O)[C@@H](O)[C@@H]6O)C(C)(C)[C@@H]5CC[C@]43C)[C@H]12

- IC50 (Trichomonas vaginalis [3]): 834 µM
SMILES: COc1c2c(cc(O)c1C(=O)C(C)C)OC(C)(C)C=C2

- MIC (Trichomonas vaginalis [4]): 6.25 to 50 µM (≈ 5.66 to 45.3 µg/mL)
SMILES: C[C@@H](CCC1(O)OC2CC3C4C[C@H](O[C@H]5O[C@@H](C)[C@H](O)[C@@H](O[C@H]6O[C@@H](C)[C@H](O)[C@@H](O)[C@@H]6O)[C@@H]5O)[C@H]5CC(O)CC[C@]5(C)C4CC[C@]3(C)C2[C@@H]1C)CO[C@@H]1O[C@H](CO)[C@@H](O)[C@H](O)[C@H]1O (some centres undefined)

SMILES: C1CCNCC1.S=C(S)N1CCCC1 [listing 1 of 2 here]
- MEC (Homo sapiens [1]): 61.5 mg/L

- MIC (Trichomonas vaginalis [5]): 1 to 111 µM
SMILES: Cc1ncc([N+](=O)[O-])n1CCO [METRONIDAZOLE]
- MEC (Homo sapiens [1]): 1%

- MIC (Trichomonas vaginalis [6]; [22]): 20 µg/mL (≈ 55.5 µM)
SMILES: O=C(/C=C/c1ccc(O)c(O)c1)O[C@H](Cc1ccc(O)c(O)c1)C(=O)O [ROSMARINIC ACID]

- MIC (Trichomonas vaginalis [6]; [22]): > 2000 µg/mL
SMILES: Oc1cc(O)c2c(c1)O[C@H](c1ccc(O)c(O)c1)[C@H](O[C@]1(c3ccc(O)c(O)c3)Oc3cc(O)cc(O)c3[C@H](O)[C@H]1O)C2

- MIC (Trichomonas vaginalis [4]): 6.25 to 50 µM (≈ 5.64 to 45.2 µg/mL)
SMILES: C[C@@H](CCC1(O)OC2CC3C4C[C@H](O[C@H]5O[C@@H](C)[C@H](O)[C@@H](O[C@H]6O[C@@H](C)[C@H](O)[C@@H](O)[C@@H]6O)[C@@H]5O)[C@H]5CC(=O)CC[C@]5(C)C4CC[C@]3(C)C2[C@@H]1C)CO[C@@H]1O[C@H](CO)[C@@H](O)[C@H](O)[C@H]1O (some centres undefined)

SMILES: O=S(=O)(O)CCNCl
- inhibition at 5500 µM (Trichomonas vaginalis [7]): 100%
- inhibition at 5500 µM (Trichomonas vaginalis [8]): 100%

- MIC (Trichomonas vaginalis [11]): 145 µM (≈ 59.1 µg/mL)
SMILES: CCCCCCCCCCCCCCCCOP(=O)([O-])OCC[N+](C)(C)C [MILTEFOSINE]
- IC50 (Trichomonas vaginalis [9]): 20 µM
- IC50 (Trichomonas vaginalis [10]): 14.5 µM

- EC50 (Trichomonas vaginalis [6]; Trichomonas vaginalis): 100 µg/mL (≈ 271 µM)
SMILES: COc1cc(/C=C/C(=O)CC(=O)/C=C/c2ccc(O)c(OC)c2)ccc1O [CURCUMIN]

- MIC (Trichomonas vaginalis [5]): 12.5 to 50 µg/mL
SMILES: FC(F)(F)c1ccc(OC(CCN2CCCC2)c2ccccc2)cc1 (centres undefined)
- MEC (Homo sapiens [1]): 1%

- MIC (Trichomonas vaginalis [4]): 6.25 µM (≈ 3.59 µg/mL)
SMILES: C=C(CO[C@@H]1O[C@H](CO)[C@@H](O)[C@H](O)[C@H]1O)[C@@H]1Cc2c(ccc3c2O[C@H]2COc4cc(OC)c(OC)cc4[C@H]2[C@@H]3O)O1

SMILES: C1CCNC1.S=C(S)N1CCCC1 [listing 2 of 2 here]
- MIC (Trichomonas vaginalis [12]): 5.25 µM
- MIC (Trichomonas vaginalis [5]): 13.5 µM

- MIC (Trichomonas vaginalis [4]): 12.5 µM (≈ 7.11 µg/mL)
SMILES: COC(=O)C1=CC[C@@H](O[C@@H]2O[C@H](CO)[C@@H](O)[C@H](O)[C@H]2O)C(CCC=O)[C@@H]1CC(=O)OCCc1ccc(O)c(O)c1 (some centres undefined)

- MIC (Trichomonas vaginalis [6]): 0.025%
SMILES: CC1(C)CC[C@]2(C(=O)O)[C@H](O)C[C@]3(C)C(=CC[C@@H]4[C@@]5(C)CC[C@H](O[C@@H]6O[C@H](C(=O)O)[C@@H](O)[C@H](O)[C@H]6O)[C@@](C)(C=O)[C@@H]5CC[C@]43C)[C@@H]2C1

- IC50 (Trichomonas vaginalis [3]): 1230 µM
SMILES: COc1cc2c(c(O)c1C(=O)C(C)C)C=CC(C)(C)O2

- MIC (Trichomonas vaginalis [5]): 3.12 to 50 µg/mL
SMILES: N#CCCCN1CCN(C(=S)SSC(=S)N2CCN(CCCC#N)CC2)CC1

- IC50 (Trichomonas vaginalis [3]): 226 µM
SMILES: COc1cc2c(c(OC)c1C(=O)C(C)C)C=CC(C)(C)O2

- MIC (Trichomonas vaginalis [4]): 6.25 µM (≈ 3.42 µg/mL)
SMILES: COC(=O)C1=CO[C@H](O[C@@H]2O[C@H](CO)[C@@H](O)[C@H](O)[C@H]2O)[C@@]2(C)[C@@H](C)OC(=O)C(C)(C)[C@@H](C)OC(=O)C[C@@]12C

SMILES: O=C(SCC(CN1CCCC1)SSC(CSC(=O)N1CCCCC1)CN1CCCC1)N1CCCCC1 (centres undefined)
- Activity (Homo sapiens [13]): 100%

SMILES: CCCCCCCCCCCC(=O)O[C@H]1C=C2CCN3Cc4cc5c(cc4[C@H]([C@@H]1O)[C@@H]23)OCO5
- inhibition at 250 µM (Trichomonas vaginalis [14]): 100%
- inhibition at 250 µM (Trichomonas vaginalis [15]): 100%

- IC50 (Trichomonas vaginalis [3]): 122 µM
SMILES: CC(C)C(=O)C1=C(O)C(Cc2c(O)c3c(c(C(=O)C(C)C)c2O)OC(C)(C)C=C3)=C(O)C(C)(C)C1=O

SMILES: CCCCCCCCN=c1ccn(CCCCCCCCCCn2ccc(=NCCCCCCCC)cc2)cc1.Cl.Cl [OCTENIDINE HYDROCHLORIDE]
- EC50 (Trichomonas vaginalis [16]): 0.68 to 2.11 µg/mL
- EC50 (Trichomonas vaginalis [17]): 0.68 to 2.11 µg/mL

SMILES: OC1(c2ccc(-c3ccccc3)cc2)CN2CCC1CC2 (centres undefined)
- IC50 (Trichomonas vaginalis [18]): 46 µM

SMILES: c1cc(CCCc2ccc(-c3nc4ccccc4[nH]3)cc2)cc(-c2nc3ccccc3[nH]2)c1
- Ratio (Trichomonas vaginalis [19]): 5.5
- Activity (Trichomonas vaginalis [20]): 100%
- MIC (Trichomonas vaginalis [11]): 26 µM (≈ 11.1 µg/mL)

- MIC (Trichomonas vaginalis [6]; [22]): 500 µg/mL (≈ 1840 µM)
SMILES: OC[C@H]1O[C@@H](Oc2ccc(O)cc2)[C@H](O)[C@@H](O)[C@@H]1O [ARBUTIN]

SMILES: C[C@H]1CC[C@]2(NC1)O[C@H]1C[C@H]3[C@@H]4CC[C@H]5C[C@@H](O[C@@H]6O[C@H](CO)[C@H](O[C@@H]7O[C@H](CO)[C@@H](O)[C@H](O[C@@H]8OC[C@@H](O)[C@H](O)[C@H]8O)[C@H]7O[C@@H]7O[C@H](CO)[C@@H](O)[C@H](O)[C@H]7O)[C@H](O)[C@H]6O)CC[C@]5(C)[C@H]4CC[C@]3(C)[C@H]1[C@@H]2C [TOMATINE]
- inhibition at 100 µM (Trichomonas vaginalis [21]): 103%

- IC50 (Trichomonas vaginalis [6]; Trichomonas vaginalis): 171 µg/mL (≈ 1110 µM)
SMILES: CC(C)=CCC/C(C)=C/CO [GERANIOL]

- MIC (Trichomonas vaginalis [5]): 14 µg/mL
SMILES: CN(CCC(Oc1ccc(C(F)(F)F)cc1)c1ccccc1)C(=S)SCN1CCCC1 (centres undefined)
- MEC (Homo sapiens [1]): 0.05%

- MIC (Trichomonas vaginalis [6]; [22]): 500 to 1000 µg/mL (≈ 1950 to 3900 µM)
SMILES: CCCCCCCCCCCCCCCC(=O)O [PALMITIC ACID]

- MIC (Trichomonas vaginalis [4]): 12.5 µM (≈ 7.71 µg/mL)
SMILES: COC(=O)C1=CO[C@@H](O[C@@H]2O[C@H](CO)[C@@H](O)[C@H](O)[C@H]2O)[C@H]2[C@@H]1C=C[C@@]21C=C([C@H](C)OC(=O)/C=C/c2ccc(O)cc2)C(=O)O1

SMILES: C1CCNCC1.S=C(S)N1CCCC1 [listing 2 of 2 here]
- MIC (Trichomonas vaginalis [12]): 1.56 µg/mL
- MIC (Trichomonas vaginalis [5]): 7.8 µg/mL

- MIC (Trichomonas vaginalis [6]; [22]): > 2000 µg/mL
SMILES: Oc1cc(O)c2c(c1)O[C@H](c1cc(O)c(O)c(O)c1)[C@@H](O)[C@@H]2c1c(O)cc(O)c2c1O[C@H](c1cc(O)c(O)c(O)c1)[C@@H](O)C2

- MIC (Trichomonas vaginalis [6]): 0.25%
SMILES: CC1(C)CC[C@]2(C(=O)O)CC[C@]3(C)C(=CC[C@@H]4[C@@]5(C)CC[C@H](O[C@@H]6[C@@H](O)[C@H](O[C@@H]7O[C@H](CO)[C@@H](O)[C@H](O)[C@H]7O)O[C@H](CO)[C@H]6O)C(C)(C)[C@@H]5CC[C@]43C)[C@@H]2C1

- MIC (Trichomonas vaginalis [6]; [22]): 500 to 1000 µg/mL (≈ 1480 to 2950 µM)
SMILES: CCCCCCCCCCCCCCCCCCCCCCCC
